# In US12428408B2, “Fused heterocyclic mescaline derivatives” (Enveric Biosciences Canada Inc., priority 2022, dated 2025):
# Read-outs that look alike come from different tables or passages of the source.
# What was measured:
# [1] = molecular target: T1, NET (h) (Homo sapiens, UniProt P23975); test: Competition assay to measure binding affinity at norepinephrine transporter (NET); conditions: test ligand 10 μM; [3H]nisoxetine 1 nM
# T1 construct: host or cells: CHO cells
# [2] = molecular target: T2, 5-HT2B (h) (Homo sapiens, UniProt P41595); test: Competition assay to measure binding affinity at 5-HT2B receptor; conditions: test ligand 10 μM; [3H]mesulergine 2 nM
# T2 construct: host or cells: CHO cells
# [3] = molecular target: T3, human serotonin transporter (SERT) (Homo sapiens, UniProt P31645); test: biochemical; assay type: binding
# T3 construct: purchased PerkinElmer RBHSTM400UA
# [4] = molecular target: T4, DAT (h) (Homo sapiens, UniProt Q01959); test: Competition assay to measure binding affinity at dopamine transporter (DAT); conditions: test ligand 10 μM; [3H]BTCP 4 nM
# T4 construct: host or cells: CHO cells
# [5] = molecular target: T5, MT1 (ML1A) (h) (Homo sapiens, UniProt P48039); test: Competition assay to measure binding affinity at MT1 receptor; conditions: test ligand 10 μM; [125I]2-iodomelatonin 0.01 nM
# T5 construct: host or cells: CHO cells
# [6] = molecular target: T6, 5-HT2C (h) (Homo sapiens, UniProt P28335); test: Competition assay to measure binding affinity at 5-HT2C receptor; conditions: test ligand 10 μM; [125I](±)DOI 0.1 nM
# T6 construct: host or cells: HEK-293 cells
# T6 sequence (P28335 33-458): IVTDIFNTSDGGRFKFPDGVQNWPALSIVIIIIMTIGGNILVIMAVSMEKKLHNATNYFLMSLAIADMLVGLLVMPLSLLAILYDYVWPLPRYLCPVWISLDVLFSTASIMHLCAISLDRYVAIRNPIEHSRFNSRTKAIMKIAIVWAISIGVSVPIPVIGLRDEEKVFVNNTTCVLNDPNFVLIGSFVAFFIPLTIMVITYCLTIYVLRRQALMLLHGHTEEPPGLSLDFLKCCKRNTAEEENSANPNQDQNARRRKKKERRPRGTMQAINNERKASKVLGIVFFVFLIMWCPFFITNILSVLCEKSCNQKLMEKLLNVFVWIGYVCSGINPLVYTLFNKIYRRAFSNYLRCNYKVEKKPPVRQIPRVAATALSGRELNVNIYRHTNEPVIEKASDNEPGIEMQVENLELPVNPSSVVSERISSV
# [7] = molecular target: T7, alpha2A (h) (Homo sapiens, UniProt P08913); test: Competition assay to measure binding affinity at alpha2A receptor; conditions: test ligand 10 μM, [3H]RX 821002 1 nM; for inhibition at 10 µM: read-out: α-2A, percent of control-specific binding
# T7 construct: host or cells: CHO cells
# T7 sequence (P08913 1-465): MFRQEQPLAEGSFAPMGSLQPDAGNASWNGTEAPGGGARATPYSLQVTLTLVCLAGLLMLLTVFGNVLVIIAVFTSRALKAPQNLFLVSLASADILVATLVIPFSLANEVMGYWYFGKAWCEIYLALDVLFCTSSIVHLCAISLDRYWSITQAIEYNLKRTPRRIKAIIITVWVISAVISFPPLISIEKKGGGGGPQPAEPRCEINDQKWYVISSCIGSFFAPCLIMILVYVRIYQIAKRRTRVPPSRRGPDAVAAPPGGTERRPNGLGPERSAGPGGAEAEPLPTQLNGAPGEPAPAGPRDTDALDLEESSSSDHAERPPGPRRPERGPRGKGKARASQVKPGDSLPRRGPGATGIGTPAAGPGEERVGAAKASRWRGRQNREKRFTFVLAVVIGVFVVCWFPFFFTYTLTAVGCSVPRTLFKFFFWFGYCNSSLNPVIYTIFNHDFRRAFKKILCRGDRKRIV
# [8] = molecular target: T8, 5-HT1D (r) (Rattus norvegicus, UniProt P28565); test: Competition assay to measure binding affinity at 5-HT1D receptor; conditions: test ligand 10 μM; [3H]serotonin 1 nM
# T8 construct: host or cells: CHO cells
# [9] = molecular target: 5-HT2A receptor (Homo sapiens, UniProt P28223); test: 5-HT2A receptor radioligand competition assay (SPA)
# [10] = test system: C57BL/6-Elite male and female mice; test: Ear-Scratch Response (ESR) assay; assay type: in vivo, mouse; conditions: i.p. 6 mg/kg, 15-to-30-minute window following drug administration
# [11] = test system: C57BL/6-Elite male and female mice; test: Head Twitch Response (HTR) assay; assay type: in vivo, mouse; conditions: i.p. 6 mg/kg, 15-to-30-minute window following drug administration
# [12] = molecular target: T9, 5-HT1A receptor (Homo sapiens, UniProt P08908); test: 5-HT1A receptor radioligand competition assay (SPA); assay type: binding; conditions: for 5-HT1A receptor binding, binding curve in words: FIGS. 35C-35L
# T9 construct: purchased Perkin Elmer 6110501400UA
# T9 sequence (P08908 1-422): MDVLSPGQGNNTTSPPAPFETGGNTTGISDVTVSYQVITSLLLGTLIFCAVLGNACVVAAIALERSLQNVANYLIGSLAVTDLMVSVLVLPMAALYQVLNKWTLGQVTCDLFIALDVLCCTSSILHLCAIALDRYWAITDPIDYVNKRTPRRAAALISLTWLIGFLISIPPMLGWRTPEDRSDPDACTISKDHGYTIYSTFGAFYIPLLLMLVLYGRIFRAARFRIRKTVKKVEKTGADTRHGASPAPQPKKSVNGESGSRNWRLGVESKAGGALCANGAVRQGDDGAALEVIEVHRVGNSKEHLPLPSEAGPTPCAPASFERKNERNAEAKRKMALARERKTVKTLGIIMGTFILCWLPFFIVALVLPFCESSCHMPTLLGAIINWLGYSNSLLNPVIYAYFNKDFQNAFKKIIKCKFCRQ
# [13] = molecular target: T10, D2 (h) (Homo sapiens, UniProt P14416); test: Competition assay to measure binding affinity at D2L receptor; conditions: test ligand 10 μM; [3H]methylspiperone 0.3 nM
# T10 construct: host or cells: HEK-293 cells
# [14] = molecular target: T11, 5-HT7 (h) (Homo sapiens, UniProt P34969); test: Competition assay to measure binding affinity at 5-HT7 receptor; conditions: test ligand 10 μM; [3H]LSD 4 nM
# T11 construct: host or cells: HEK-293 cells
# [15] = molecular target: T12, 5-HT1B (h) (Homo sapiens, UniProt P28222); test: Competition assay to measure binding affinity at 5-HT1B receptor; conditions: test ligand 10 μM; [3H]GR125743 1 nM
# T12 construct: host or cells: Chem-1 (RBL) cells
# [16] = molecular target: T13, D3 (h) (Homo sapiens, UniProt P35462); test: Competition assay to measure binding affinity at D3 receptor; conditions: test ligand 10 μM; [3H]methylspiperone […]
# T13 construct: host or cells: CHO cells
# [17] = test system: Human NT2/D1 precursor cells (NT2/D1); test: Neuroplastogenicity assay using human model (NT2) neurons; assay type: cell-based; conditions: RA-treated NT2 cells, 1 μM, 48 hours, vs 0.1% DMSO
# Experimental: The compound with formula A(XXXII) was assayed for neuroplastogenic potential using the following procedure. Human NT2/D1 precursor cells (NT2/D1) were purchased from the American Type Culture Collection (ATCC, Manassas, VA, USA). The neuronal differentiation was carried out as previously described (Roloff et al., 2015, PLOS ONE e0118536:1-14; Roloff et al., 2013, BMC Neuroscience 14:141-155) with minor modifications. First, NT2/D1 cells were seeded in T-25 suspension culture flasks (REF #690190, Greiner bio-one, Germany). Each flask contained a minimum of 5×10^6 cells in 10 ml of DMEM/F12 supplemented with 10% fetal bovine serum (FBS), 1% penicillin and streptomycin and 10 μM retinoic acid (RA medium) to start neuronal differentiation. The cells were cultured for 3 days in free floating medium. At the end of the incubation, cells were trypsinized and collected by centrifugation, mechanically dispersed, and counted. Counted cells were seeded on Poly D-Lysine (PDL) coated cover slips (12 mm; diameter round, Fisher Scientific; GG-12-PDL) containing minimum of 0.1×10^5 cells in culture medium without RA. The next day, culture medium was replaced with RA medium containing 2% of FBS. These cells were cultured for 5 days, with a change of RA medium two days later. For the neuronal outgrowth assay, after cells had successfully attached and established under coverslips, the RA medium was replaced with one of the following: (1) test molecules at one of two different concentrations (10 μm or 1 μm); (2) positive control ROCK inhibitor Y-27632, (Dihydrochloride, Sigma-Aldrich); (2) positive control ibuprofen (14883-1G; Sigma-Aldrich), or (4) negative control culture medium containing 2% of FBS. Cells under these conditions were incubated for 48 hours under standard conditions (37° C., 5% CO2) in an incubator prior to the immunofluorescent assay.
# For the immunofluorescent assay, the treated cells housed under coverslips were collected after 48 hours of drug treatments. These coverslips washed with calcium chloride-free and magnesium chloride-free phosphate buffered saline (PBS) pH 7.4 (Gibco, #70011-044) and fixed using paraformaldehyde (PFA) 4% in PBS (#J61899, thermoscientific) for 15 min at room temperature (RT) and washed three times with 0.01% of Triton-X100 in PBS (PBST) to remove remaining PFA and to permeabilize the cells. Unspecific binding sites were blocked with 5% Bovine Serum Albumin (BSA) solution (#9048-46-8, Millipore) in PBST for 60 minutes at RT. Rabbit monoclonal antibody β-III-Tubulin (1:5,000, ab52623, Abcam) was applied overnight (O/N) at 4° C. […] Finally, the immunofluorescence images were detected by using Olympus VS110 slide scanner microscope. […]
# [18] = competition with 0.5 nM 8-hydroxy-DPAT [3H], test compound 3 nM to 1 mM, read-out: 5-HT1A, Ki
# T3 sequence (P31645 whole entry): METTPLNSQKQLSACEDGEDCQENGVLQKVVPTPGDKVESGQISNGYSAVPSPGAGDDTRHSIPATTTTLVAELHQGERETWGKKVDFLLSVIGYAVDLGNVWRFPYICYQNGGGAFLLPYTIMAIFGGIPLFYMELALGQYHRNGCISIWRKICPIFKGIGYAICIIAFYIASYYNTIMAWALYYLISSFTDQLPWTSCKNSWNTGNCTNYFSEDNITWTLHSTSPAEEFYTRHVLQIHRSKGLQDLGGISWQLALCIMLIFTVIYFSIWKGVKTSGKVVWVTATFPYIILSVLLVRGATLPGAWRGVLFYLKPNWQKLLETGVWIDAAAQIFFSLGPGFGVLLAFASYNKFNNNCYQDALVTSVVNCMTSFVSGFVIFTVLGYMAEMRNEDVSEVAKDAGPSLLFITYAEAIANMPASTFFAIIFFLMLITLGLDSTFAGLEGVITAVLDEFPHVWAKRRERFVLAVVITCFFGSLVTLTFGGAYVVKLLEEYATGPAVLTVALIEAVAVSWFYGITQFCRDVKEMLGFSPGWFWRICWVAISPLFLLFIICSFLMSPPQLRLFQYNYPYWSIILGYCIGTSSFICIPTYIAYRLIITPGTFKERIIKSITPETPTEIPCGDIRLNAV
# T4 sequence (Q01959 whole entry): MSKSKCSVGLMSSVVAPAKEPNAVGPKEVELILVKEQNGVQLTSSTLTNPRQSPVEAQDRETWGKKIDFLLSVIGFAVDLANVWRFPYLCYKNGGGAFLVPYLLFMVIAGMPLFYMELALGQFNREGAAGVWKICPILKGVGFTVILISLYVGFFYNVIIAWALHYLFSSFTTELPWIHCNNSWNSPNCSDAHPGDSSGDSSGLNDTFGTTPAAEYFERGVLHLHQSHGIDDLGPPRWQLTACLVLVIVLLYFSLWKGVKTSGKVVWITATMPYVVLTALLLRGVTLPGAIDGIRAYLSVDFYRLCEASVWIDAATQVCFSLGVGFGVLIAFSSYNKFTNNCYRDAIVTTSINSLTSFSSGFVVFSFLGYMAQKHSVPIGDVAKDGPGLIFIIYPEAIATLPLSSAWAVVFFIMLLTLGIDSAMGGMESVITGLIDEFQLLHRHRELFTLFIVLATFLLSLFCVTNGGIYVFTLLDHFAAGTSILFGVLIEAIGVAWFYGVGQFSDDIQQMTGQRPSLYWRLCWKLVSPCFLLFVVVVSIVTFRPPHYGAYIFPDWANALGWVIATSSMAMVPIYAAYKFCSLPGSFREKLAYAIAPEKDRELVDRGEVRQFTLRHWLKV
# 5-HT2A receptor, sequence (P28223 whole entry): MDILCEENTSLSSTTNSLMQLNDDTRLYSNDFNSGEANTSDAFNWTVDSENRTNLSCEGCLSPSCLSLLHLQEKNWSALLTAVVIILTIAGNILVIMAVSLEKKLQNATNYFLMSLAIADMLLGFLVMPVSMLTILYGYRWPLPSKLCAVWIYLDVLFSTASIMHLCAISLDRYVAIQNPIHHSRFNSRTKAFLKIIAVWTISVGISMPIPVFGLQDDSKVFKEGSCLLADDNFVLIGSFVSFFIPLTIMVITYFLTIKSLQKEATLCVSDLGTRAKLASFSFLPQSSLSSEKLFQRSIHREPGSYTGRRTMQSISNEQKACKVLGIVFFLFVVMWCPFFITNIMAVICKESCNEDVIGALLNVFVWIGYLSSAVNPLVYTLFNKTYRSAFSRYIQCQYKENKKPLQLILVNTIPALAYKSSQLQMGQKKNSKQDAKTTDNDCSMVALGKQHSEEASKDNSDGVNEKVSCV
# T13 sequence (P35462 whole entry): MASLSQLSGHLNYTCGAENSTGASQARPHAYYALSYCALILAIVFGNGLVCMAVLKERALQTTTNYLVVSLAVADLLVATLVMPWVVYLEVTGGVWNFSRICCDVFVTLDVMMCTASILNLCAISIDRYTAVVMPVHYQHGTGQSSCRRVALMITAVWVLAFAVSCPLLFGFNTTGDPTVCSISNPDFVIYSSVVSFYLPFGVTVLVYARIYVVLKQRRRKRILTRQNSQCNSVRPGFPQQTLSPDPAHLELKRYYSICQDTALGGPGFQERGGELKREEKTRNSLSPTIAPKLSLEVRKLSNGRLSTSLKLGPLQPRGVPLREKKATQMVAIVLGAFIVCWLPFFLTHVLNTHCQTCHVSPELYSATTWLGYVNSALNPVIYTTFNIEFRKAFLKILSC
# T1 sequence (P23975 whole entry): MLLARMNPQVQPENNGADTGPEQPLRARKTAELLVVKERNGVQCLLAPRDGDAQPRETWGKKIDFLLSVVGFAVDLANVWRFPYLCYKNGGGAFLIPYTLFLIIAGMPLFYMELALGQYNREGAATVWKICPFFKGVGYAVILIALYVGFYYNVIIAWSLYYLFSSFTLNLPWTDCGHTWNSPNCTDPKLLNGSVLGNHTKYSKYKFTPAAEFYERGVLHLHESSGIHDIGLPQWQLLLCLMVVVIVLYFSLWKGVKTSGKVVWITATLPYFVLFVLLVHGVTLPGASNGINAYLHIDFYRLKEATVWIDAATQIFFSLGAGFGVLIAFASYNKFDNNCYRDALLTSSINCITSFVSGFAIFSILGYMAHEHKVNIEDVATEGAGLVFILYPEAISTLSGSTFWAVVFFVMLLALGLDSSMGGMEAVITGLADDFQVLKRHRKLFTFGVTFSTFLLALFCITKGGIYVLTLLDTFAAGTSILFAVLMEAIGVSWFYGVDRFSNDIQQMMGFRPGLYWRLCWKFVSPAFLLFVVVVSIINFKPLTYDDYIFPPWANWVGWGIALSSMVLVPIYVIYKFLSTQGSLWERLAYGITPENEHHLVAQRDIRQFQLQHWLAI
# T11 sequence (P34969 whole entry): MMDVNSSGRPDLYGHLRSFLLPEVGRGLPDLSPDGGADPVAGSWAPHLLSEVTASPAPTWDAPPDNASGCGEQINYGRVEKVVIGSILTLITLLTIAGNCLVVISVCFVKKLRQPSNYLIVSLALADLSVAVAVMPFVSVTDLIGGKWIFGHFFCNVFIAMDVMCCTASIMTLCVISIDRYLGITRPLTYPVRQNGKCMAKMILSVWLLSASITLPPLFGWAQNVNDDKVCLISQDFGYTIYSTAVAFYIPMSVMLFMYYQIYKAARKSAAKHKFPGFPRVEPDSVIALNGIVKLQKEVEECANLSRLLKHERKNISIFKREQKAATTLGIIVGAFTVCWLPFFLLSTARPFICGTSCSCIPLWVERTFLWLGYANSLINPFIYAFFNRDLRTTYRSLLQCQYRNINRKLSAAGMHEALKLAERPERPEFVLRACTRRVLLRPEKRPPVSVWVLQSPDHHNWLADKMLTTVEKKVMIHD
# T8 sequence (P28565 whole entry): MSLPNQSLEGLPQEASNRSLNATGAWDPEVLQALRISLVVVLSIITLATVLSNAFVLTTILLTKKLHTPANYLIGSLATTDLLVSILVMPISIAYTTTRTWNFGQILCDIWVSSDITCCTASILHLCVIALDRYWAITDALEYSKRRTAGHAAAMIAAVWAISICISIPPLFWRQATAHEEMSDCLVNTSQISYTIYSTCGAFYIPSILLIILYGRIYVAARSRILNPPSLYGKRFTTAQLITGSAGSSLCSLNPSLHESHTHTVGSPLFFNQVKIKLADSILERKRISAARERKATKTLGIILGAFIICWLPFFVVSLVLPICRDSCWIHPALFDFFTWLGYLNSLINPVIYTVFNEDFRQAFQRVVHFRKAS
# T5 sequence (P48039 whole entry): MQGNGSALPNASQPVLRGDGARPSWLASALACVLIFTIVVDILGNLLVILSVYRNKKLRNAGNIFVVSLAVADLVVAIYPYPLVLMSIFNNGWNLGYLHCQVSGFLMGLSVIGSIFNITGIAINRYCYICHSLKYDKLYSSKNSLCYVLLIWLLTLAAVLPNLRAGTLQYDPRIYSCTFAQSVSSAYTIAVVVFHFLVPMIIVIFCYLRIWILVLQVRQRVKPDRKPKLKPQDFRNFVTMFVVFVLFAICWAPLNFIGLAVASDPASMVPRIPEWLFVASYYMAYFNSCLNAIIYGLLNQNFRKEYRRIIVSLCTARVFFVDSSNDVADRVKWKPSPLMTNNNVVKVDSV
# T12 sequence (P28222 whole entry): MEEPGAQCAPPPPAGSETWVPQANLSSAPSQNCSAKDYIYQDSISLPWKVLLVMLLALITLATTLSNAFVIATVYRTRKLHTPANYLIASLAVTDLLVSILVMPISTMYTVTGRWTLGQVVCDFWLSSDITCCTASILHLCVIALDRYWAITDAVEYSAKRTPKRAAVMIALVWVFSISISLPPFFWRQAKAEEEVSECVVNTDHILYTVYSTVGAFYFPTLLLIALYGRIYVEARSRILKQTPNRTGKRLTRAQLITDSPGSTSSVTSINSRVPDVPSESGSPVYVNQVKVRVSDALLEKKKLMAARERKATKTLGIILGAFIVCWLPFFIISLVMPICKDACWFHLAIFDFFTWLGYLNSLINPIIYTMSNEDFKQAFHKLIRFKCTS
# T10 sequence (P14416 whole entry): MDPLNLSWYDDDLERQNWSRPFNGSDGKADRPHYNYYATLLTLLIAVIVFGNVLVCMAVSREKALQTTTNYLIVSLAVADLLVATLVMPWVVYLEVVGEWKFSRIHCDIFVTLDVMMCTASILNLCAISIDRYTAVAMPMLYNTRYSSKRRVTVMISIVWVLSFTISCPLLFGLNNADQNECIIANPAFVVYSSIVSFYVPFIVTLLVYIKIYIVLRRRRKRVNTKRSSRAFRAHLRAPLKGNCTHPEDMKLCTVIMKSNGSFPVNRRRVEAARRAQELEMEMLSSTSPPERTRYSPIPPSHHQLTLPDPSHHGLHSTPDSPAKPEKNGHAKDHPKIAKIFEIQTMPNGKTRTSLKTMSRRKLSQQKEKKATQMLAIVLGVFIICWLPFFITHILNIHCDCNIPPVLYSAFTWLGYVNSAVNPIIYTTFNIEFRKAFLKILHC
smiles,measurement,setting,value
CC(Cc1ccc2c(c1)OCO2)NC1CCC1 (stereo not shown) [A(I)],"NET, percent of control-specific binding",[1],62%
same,"HT2B, percent of control-specific binding",[2],37%
same,Ki,[3],1.1 µM
same,"DAT, percent of control-specific binding",[4],98%
same,"MT1, percent of control-specific binding",[5],2%
same,"HT2C, percent of control-specific binding",[6],28%
same,inhibition at 10 µM,[7],35%
same,"HT1D, percent of control-specific binding",[8],0%
same,Ki,[9],517 µM
same,incidences of ESR relative to vehicle-treated control mice,[10],Elevated incidences of ESR
same,incidences of HTR relative to vehicle-treated control mice,[11],Elevated incidences of HTR
same,Ki,[12],20.8 µM
same,"D2, percent of control-specific binding",[13],15%
same,"HT7, percent of control-specific binding",[14],5%
same,"HT1B, percent of control-specific binding",[15],0%
same,"D3, percent of control-specific binding",[16],24%
c1cc2c(cc1CCN1CCOCC1)OCO2 [A(VII)],"NET, percent of control-specific binding",[1],0%
same,"HT2B, percent of control-specific binding",[2],12%
same,Ki,[3],29.9 µM
same,"DAT, percent of control-specific binding",[4],18%
same,"MT1, percent of control-specific binding",[5],0%
same,"HT2C, percent of control-specific binding",[6],4%
same,inhibition at 10 µM,[7],5%
same,"HT1D, percent of control-specific binding",[8],0%
same,Ki,[9],6 µM
same,incidences of ESR relative to vehicle-treated control mice,[10],Elevated incidences of ESR
same,incidences of HTR relative to vehicle-treated control mice,[11],Elevated incidences of HTR
same,Ki,[12]; [18],24.1 µM
same,"D2, percent of control-specific binding",[13],3%
same,"HT7, percent of control-specific binding",[14],14%
same,"HT1B, percent of control-specific binding",[15],0%
same,"D3, percent of control-specific binding",[16],4%
CC(Cc1ccc2c(c1)OCO2)NCCc1c[nH]c2ccccc12 (stereo not shown) [A(XXXI)],neurite outgrowth (β-III-tubulin immunofluorescence) compared to negative control,[17],strong signs of neurite outgrowth
"C[C@@H](N)[C@H]1CC[C@H](C(=O)Nc2ccncc2)CC1 [Y-27632, reference compound]",neurite outgrowth (β-III-tubulin immunofluorescence) compared to negative control,[17],strong signs of neurite outgrowth
CCOc1c(OC)cc(CCN)cc1OC [escaline],"NET, percent of control-specific binding",[1],6%
same,"HT2B, percent of control-specific binding",[2],81%
same,"SERT binding, binding curve in words",[3],bind SERT to varying degrees
same,Ki,"[3]; read-out: SERT, Ki",113 µM
same,"DAT, percent of control-specific binding",[4],0%
same,"MT1, percent of control-specific binding",[5],0%
same,"HT2C, percent of control-specific binding",[6],95%
same,"α-2A, percent of control-specific binding",[7],45%
same,"HT1D, percent of control-specific binding",[8],42%
same,Ki,"[9]; read-out: 5-HT2A, Ki, competition with 1 nM [3H]ketanserin, test compound 3 nM to 1 mM",61 µM
same,incidences of ESR relative to vehicle-treated control mice,[10],Elevated incidences of ESR
same,incidences of HTR relative to vehicle-treated control mice,[11],Elevated incidences of HTR
same,"5-HT1A receptor binding, binding curve in words",[12],binding to 5-HT1A receptor
same,Ki,[12]; [18],12.4 µM
same,"D2, percent of control-specific binding",[13],5%
same,"HT7, percent of control-specific binding",[14],16%
same,"HT1B, percent of control-specific binding",[15],0%
same,"D3, percent of control-specific binding",[16],0%
"CCCOc1c(OC)cc(CCN)cc1OC [proscaline, reference compound]","NET, percent of control-specific binding",[1],−9%
same,"HT2B, percent of control-specific binding",[2],85%
same,Ki,[3],251 µM
same,"SERT binding, binding curve in words",[3],bind SERT to varying degrees
same,"DAT, percent of control-specific binding",[4],−2%
same,"MT1, percent of control-specific binding",[5],3%
same,"HT2C, percent of control-specific binding",[6],97%
same,inhibition at 10 µM,[7],40%
same,"HT1D, percent of control-specific binding",[8],25%
same,incidences of ESR relative to vehicle-treated control mice,[10],Elevated incidences of ESR
same,incidences of HTR relative to vehicle-treated control mice,[11],Elevated incidences of HTR
same,"5-HT1A receptor binding, binding curve in words",[12],binding to 5-HT1A receptor
same,"D2, percent of control-specific binding",[13],−11%
same,"HT1B, percent of control-specific binding",[15],−13%
same,"D3, percent of control-specific binding",[16],4%
